Test [1] addresses T1, BCL-XL (Homo sapiens, UniProt Q07817).
T1 construct: endogenous in cells; host or cells: MOLT-4
As to the kind of experiment: BCL-XL degradation assay, western blot in MOLT-4 cells, 16 h. It counts as cell-based. Conditions: western blot, MOLT-4 cells, 16 h; for Dmax: read-out: Bcl-xL WB in MOLT-4 degradation 16 h: Average Dmax %; for DC50: read-out: Bcl-xL WB in MOLT-4 degradation 16 h: Mean external-Abs DC50. The method, then: Compounds treatment: compounds were reconstituted in DMSO to make a stock concentration of 10 mM. MOLT-4 cells were maintained in RPMI-1640+10% FBS+1% Penicillin-Streptomycin. Cells were seeded into 6-well plates in 2 mL at the seeding density of 2e6 cells/mL. Compounds were added to the cells to a final concentration ranging 0.02-10 μM. After 16 hr incubation at 37° C., in a CO2 incubator, cells were collected in an Eppendorf tube and centrifuged at 200×g for 5 minutes, the supernatant removed and pellets washed with ice-cold PBS, centrifuged and supernatant removed again. Then. 50 μl of pre-chilled RIPA lysis buffer (Boston BioProducts. BP-115D) with protease and phosphatase inhibitors (Roche Applied Science. #04906837001 and #04693116001) was added into cell pellet to lyze the cells for 20 minutes under 4° C. Cell lysates were spin at 13000 rpm for 10 minutes. Supernatants were collected and protein concentration was measured by BCA assay kit (Solarbio. PC0020-500) following the manufacturer's protocol. Samples' final protein concentration was adjusted to 3.75 μg/uL with the RIPA lysis buffer based on BCA assay results and 4× loading buffer (Invitrogen. NP0007) was added into the samples and samples were heated to 85° C., for 10 min and then let cool at RT. Samples were centrifuged at 13000 rpm for 10 min and then loaded into a 26-well NuPAGER. Novex 4-12% Bis-Tris Midi Gel (Invitrogen. WG1403BOX) and run in NuPAGER MOPS SDS Running Buffer (Invitrogen. NP0001) for 180 minutes at 70 V into a XCell4 SureLock™ Midi-Cell Runner (Invitrogen. WR0100). Gel were transferred using the Invitrogen iBlot gel transfer device (Invitrogen. IB21001) and the nitrocellulose transfer stacks (Invitrogen, IB23001) with Program PO for 9 minutes. The membrane was then blocked with 5% bovin serum albumin for 1 hr at RT, then incubated with primary antibodies diluted in blocking buffer (LI-COR. 927-60001) and shake at 4° C., overnight. The primary antibodies were anti-BCL-xL antibody (CST. 2762:1:1000), anti-beta-actin (CST. 3700; 1:5000) and anti-GAPDH (CST. 97166:1:5000). Membranes were then washed three times with PBST for 15 minutes at RT. Secondary antibodies IR-Dye 680 CW Goat anti Mouse IgG (LI-COR. 926-68070) and IR-Dye 800 CW Goat anti Rabbit IgG (LI-COR. 926-32211) were diluted at a ratio of 1:10000 into PBST and membranes incubated for 1 hour at RT. Membranes were then washed three times with PBST for 15 minutes at RT. The western blot images were obtained using Odyssey Imaging System and quantified using Image Studio Lite Ver 5.2 software.
(§1) The letter codes for BCL-XL DC50 include: A (<0.01 μM); B (0.01-0.1 μM); C (>[…]); D (>0.5-1.0 μM); and E (>1.0 μM). The letter codes for Dmax % include A (>75%); B (50 to 75%); C (<50%).
(In general: Immunoblotting shows a protein as a band on a membrane.)

Test [2] has as its target T1, BCL-XL. As to the kind of experiment: Bcl-xL ELISA degradation in MOLT-4 cells, 6 h. Format: cell-based. The conditions noted are these: for DC50: read-out: Bcl-xL ELISA in MOLT-4 degradation 6 h: Mean external-Abs DC50. The method, then: as §1

Our source for the Dmax and DC50 values is patent US20250197387A1, “BCL-XL DEGRADERS AND USES THEREOF” (Kymera Therapeutics, Inc., priority 2021, published 2025).

By Dmax is commonly meant the largest share of the target that was removed. What is called DC50 is the concentration giving 50% degradation.

T1 sequence (Q07817 whole entry): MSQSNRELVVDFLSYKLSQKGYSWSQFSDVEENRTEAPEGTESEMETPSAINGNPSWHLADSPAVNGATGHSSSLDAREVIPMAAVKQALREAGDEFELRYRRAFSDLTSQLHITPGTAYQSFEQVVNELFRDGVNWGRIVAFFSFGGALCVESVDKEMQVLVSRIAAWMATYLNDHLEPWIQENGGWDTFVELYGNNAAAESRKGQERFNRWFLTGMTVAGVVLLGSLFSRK

Regarding `Cc1ncsc1-c1ccc([C@H](C)NC(=O)[C@@H]2C[C@@H](O)CN2C(=O)[C@@H](NC(=O)CCC2(Cn3ncc(-c4ccc(N5CCc6cccc(C(=O)Nc7nc8ccccc8s7)c6C5)nc4C(=O)O)c3C)CCCCC2)C(C)(C)C)cc1` [I-128, 6-(8-(benzo[d]thiazol-2-ylcarbamoyl)-3,4-dihydroisoquinolin-2 (1H)-yl)-3-(1-((1-(3-(((S)-1-((2S,4R)-4-hydroxy-2-(((S)-1-(4-(4-methylthiazol-5-yl)phenyl)ethyl)carbamoyl)pyrrolidin-1-yl)-3,3-dimethyl-1-oxobutan-2-yl)amino)-3-oxopropyl)cyclohexyl)methyl)-5-methyl-1H-pyrazol-4-yl)picolinic acid], on BCL-XL [1], the Dmax is less than 50% and the half-maximal degradation concentration (DC50) was more than 1 µM. On the same counts, the results for `CC1(C)CCC(c2ccc(Cl)cc2)=C(CN2CCN(c3ccc(C(=O)NS(=O)(=O)c4ccc(N[C@H](CCN5CCN(C(=O)COc6cc(F)ccc6CNC(=O)[C@@H]6C[C@@H](O)CN6C(=O)[C@@H](NC(=O)C6(F)CC6)C(C)(C)C)CC5)CSc5ccccc5)c(S(=O)(=O)C(F)(F)F)c4)cc3)CC2)C1` [I-98] are less than 50% and more than 1 µM. Consider `Cc1ncsc1-c1ccc([C@H](C)NC(=O)[C@@H]2C[C@@H](O)CN2C(=O)[C@@H](NC(=O)CCCC(=O)N(C)CCCc2cccc(F)c2OCCCc2sc(N3CCc4cccc(C(=O)Nc5nc6ccccc6s5)c4C3)nc2C(=O)O)C(C)(C)C)cc1` [I-9], for which, on BCL-XL [1], the greatest degradation seen (Dmax) is more than 75% and the DC50 was 0.1 to 0.5 µM. As for `Cc1ncsc1-c1ccc([C@H](C)NC(=O)[C@@H]2C[C@@H](O)CN2C(=O)[C@@H](NC(=O)CCCS(=O)(=O)NC(=O)c2nc(N3CCc4cccc(C(=O)Nc5nc6ccccc6s5)c4C3)ccc2-c2cnn(CC34CC5CC(CC(C5)C3)C4)c2C)C(C)(C)C)cc1` [I-117], on BCL-XL [1], the Dmax is more than 75% and the DC50 was less than 0.01 µM.

With `Cc1ncsc1-c1ccc([C@H](C)NC(=O)[C@@H]2C[C@@H](O)CN2C(=O)[C@@H](NC(=O)CCCCCS(=O)(=O)NC(=O)c2nc(N3CCc4cccc(C(=O)Nc5nc6ccccc6s5)c4C3)sc2CCCOc2ccc(C#CCN(C)C)cc2F)C(C)(C)C)cc1` [I-26], at BCL-XL [1], the greatest degradation seen (Dmax) was more than 75% and the DC50 was less than 0.01 µM. On the same counts, the results for `Cc1cc(N(CCN(C)C(=O)CCCCCC(=O)N[C@H](C(=O)N2C[C@H](O)C[C@H]2C(=O)N[C@@H](C)c2ccc(-c3scnc3C)cc2)C(C)(C)C)c2ccc(-c3cnn(CC4CCCCC4)c3C)c(C(=O)O)n2)nnc1Nc1nc2ccccc2s1` [I-100] are 50 to 75% and 0.1 to 0.5 µM. The like results for `Cc1ncsc1-c1ccc([C@H](C)NC(=O)[C@@H]2C[C@@H](O)CN2C(=O)[C@@H](NC(=O)CCCC(=O)N2CCN(CC[C@H](CSc3ccccc3)Nc3ccc(S(=O)(=O)NC(=O)c4ccc(N5CCN(CC6=C(c7ccc(Cl)cc7)CCC(C)(C)C6)CC5)cc4)cc3S(=O)(=O)C(F)(F)F)CC2)C(C)(C)C)cc1` [I-86] were, in that order, 50 to 75% and more than 1 µM. On the same counts, the results for `Cc1ncsc1-c1ccc(CNC(=O)[C@@H]2C[C@@H](O)CN2C(=O)[C@@H](NC(=O)C2(F)CC2)C(C)(C)C)c(OCCCCCCCC(=O)N(C)CCCc2cccc(F)c2OCCCc2sc(N3CCc4cccc(C(=O)Nc5nc6ccccc6s5)c4C3)nc2C(=O)O)c1` [I-14] are more than 75% and 0.1 to 0.5 µM. Regarding `Cc1ncsc1-c1ccc([C@H](C)NC(=O)[C@@H]2C[C@@H](O)CN2C(=O)[C@@H](NC(=O)C2CCN(c3ccc(S(=O)(=O)NC(=O)c4nc(N5CCc6cccc(C(=O)Nc7nc8ccccc8s7)c6C5)ccc4-c4cnn(CC5CCCCC5)c4C)c(Cl)c3)CC2)C(C)(C)C)cc1` [I-276], at BCL-XL [2], the Dmax was more than 75% and the half-maximal degradation concentration (DC50) is 0.01 to 0.1 µM. On to `Cc1ncsc1-c1ccc([C@H](C)NC(=O)[C@@H]2C[C@@H](O)CN2C(=O)C(c2cc(OC3CCN(c4ccc(S(=O)(=O)NC(=O)c5nc(N6CCc7cccc(C(=O)Nc8nc9ccccc9s8)c7C6)ccc5-c5cnn(CC6CCCCC6)c5C)cc4)CC3)no2)C(C)C)cc1` (some centres unmarked) [I-231], for which the greatest degradation seen (Dmax) at BCL-XL [2] is less than 50%. Consider `Cc1ncsc1-c1ccc([C@H](C)NC(=O)[C@@H]2C[C@@H](O)CN2C(=O)[C@@H](NC(=O)CCCCN(C)CCCS(=O)(=O)NC(=O)c2nc(N3CCc4cccc(C(=O)Nc5nc6ccccc6s5)c4C3)ccc2-c2cnn(CC3CCCCC3)c2C)C(C)(C)C)cc1` [I-232], for which, on BCL-XL [2], the Dmax fell in the range of 50 to 75% and the 50% degradation concentration (DC50) fell in the range of 0.1 to 0.5 µM. The like results for `C#Cc1ccc([C@H](C)NC(=O)[C@@H]2C[C@@H](O)CN2C(=O)[C@@H](NC(=O)C2CCN(c3ccc(S(=O)(=O)NC(=O)c4nc(N5CCc6cccc(C(=O)Nc7nc8ccccc8s7)c6C5)ccc4-c4cnn(CC5CCCCC5)c4C)cc3)CC2)C(C)(C)C)cc1` [I-253] were, in that order, more than 75% and less than 0.01 µM. With `Cc1ncsc1-c1ccc([C@H](C)NC(=O)[C@@H]2C[C@@H](O)CN2C(=O)[C@@H](NC(=O)C2CCN(c3ccc(S(=O)(=O)NC(=O)c4nc(N5CCc6cccc(C(=O)Nc7nc8ccccc8s7)c6C5)ccc4-c4cnn(CC5(CCC(=O)O)CCCCC5)c4C)cc3)CC2)C(C)(C)C)cc1` [I-255], at BCL-XL [2], the Dmax lay within 50 to 75% and the 50% degradation concentration (DC50) is 0.1 to 0.5 µM.

Consider `Cc1ncsc1-c1ccc([C@H](C)NC(=O)[C@@H]2C[C@@H](O)CN2C(=O)[C@H](c2cc(N3CC(N4CCC(NC(=O)c5nc(N6CCc7cccc(C(=O)Nc8nc9ccccc9s8)c7C6)ccc5-c5cnn(CC6CCCCC6)c5C)CC4)C3)no2)C(C)C)cc1` [I-235], for which, on BCL-XL [2], the Dmax is less than 50%. On to `Cc1ncsc1-c1ccc(CNC(=O)[C@@H]2C[C@@H](O)CN2C(=O)[C@@H](NC(=O)C2(F)CC2)C(C)(C)C)c(OC2CCN(CC3CCN(C(=O)c4nc(N5CCc6cccc(C(=O)Nc7nc8ccccc8s7)c6C5)ccc4-c4cnn(CC5CCCCC5)c4C)CC3)CC2)c1` [I-227], for which, at BCL-XL [2], the Dmax is less than 50% and the half-maximal degradation concentration (DC50) is more than 1 µM. The like results for `C#Cc1ccc([C@H](CO)NC(=O)[C@@H]2C[C@@H](O)CN2C(=O)C(c2cc(OC3CCN(CCCS(=O)(=O)NC(=O)c4nc(N5CCc6cccc(C(=O)Nc7nc8ccccc8s7)c6C5)ccc4-c4cnn(CC5CCCCC5)c4C)CC3)no2)C(C)C)cc1` (some centres unmarked) [I-228] were, in that order, 50 to 75% and 0.1 to 0.5 µM.

With `Cc1ncsc1-c1ccc([C@H](C)NC(=O)[C@@H]2C[C@@H](O)CN2C(=O)[C@@H](NC(=O)C2CCN(c3ccc(S(=O)(=O)NC(=O)c4nc(N5CCc6cccc(C(=O)Nc7nc8ccccc8s7)c6C5)ccc4-c4cnn(CC5CCOCC5)c4C)cc3)CC2)C(C)(C)C)cc1` [I-260], on BCL-XL [2], the Dmax lay within 50 to 75% and the 50% degradation concentration (DC50) was in the range of 0.1 to 0.5 µM. On the same counts, the results for `Cc1cc(C(C(=O)N2C[C@H](O)C[C@H]2C(=O)NCc2ccc(-c3scnc3C)cc2OCCN2CCN(CC[C@H](CSc3ccccc3)Nc3ccc(S(=O)(=O)NC(=O)c4ccc(N5CCN(CC6=C(c7ccc(Cl)cc7)CCC(C)(C)C6)CC5)cc4)cc3S(=O)(=O)C(F)(F)F)CC2)C(C)C)on1` (some centres unmarked) [I-282] are 50 to 75% and 0.1 to 0.5 µM. The like results for `Cc1ncsc1-c1ccc([C@H](C)NC(=O)[C@@H]2C[C@@H](O)CN2C(=O)[C@H](c2cc(N3CC4(CN(c5ccc(S(=O)(=O)NC(=O)c6nc(N7CCc8cccc(C(=O)Nc9nc%10ccccc%10s9)c8C7)ccc6-c6cnn(CC7CCCCC7)c6C)cc5)C4)C3)no2)C(C)C)cc1` [I-225] were, in that order, 50 to 75% and 0.01 to 0.1 µM.

On to `Cc1cc(N(C)c2ccc(-c3cnn(CC4CCCCC4)c3C)c(C(=O)NS(=O)(=O)c3ccc(N4CCC(C(=O)N[C@H](C(=O)N5C[C@H](O)C[C@H]5C(=O)N[C@@H](C)c5ccc(-c6scnc6C)cc5)C(C)(C)C)CC4)cc3)n2)nnc1Nc1nc2ccccc2s1` [I-244], for which, at BCL-XL [2], the maximal degradation (Dmax) was more than 75% and the half-maximal degradation concentration (DC50) is 0.01 to 0.1 µM.
